By % Inhibition is commonly meant the percentage by which the read-out fell short of the control. As a reminder, the IC50 is the concentration that inhibits the measured activity by half.

Where only a bound is given, the exact number is not on record here.

This is an account of results in patent US5846755A (priority 1995, dated 1998).

The test system of data set [1] is release of active TNF in human cell culture medium (Jurkat). Put plainly: Release of active TNF from Jurkat cells (ELISA). It is filed as cell-based. The conditions noted are these: 72 hours incubation, stimulated with PMA and ionophore calcium. How it is done:
It is well known that TNF plays a fundamental role in certain physiological defense responses but, on the other hand, causes severe damage when it is released into circulation in excessive amounts or for prolonged periods. […] An attempt was, therefore, made to see whether certain compounds selected from among those of the present application and of WO 92/06108 were capable of blocking the release of active TNF in human cell culture medium (Jurkat). The cells were incubated in the presence or in the absence of metalloproteinase inhibitor for 72 hours; the release of TNF was then stimulated using activators (PMA and ionophore calcium), and the Factor was dosed into the culture medium using the ELISA test (Genzyme).
For orientation: In an ELISA, binding on a coated surface is turned into a signal by an enzyme label.

Data set [2] has as its system blood cells that migrate to the inflamed site (lymphocytes, neutrophils, eosinophils, macrophages). Put plainly: Hypereosinophilia induced in rats by Sephadex G-200 resin. It is filed as in vivo. The conditions noted are these: hypereosinophilia induced by Sephadex G-200 resin, result in words. The protocol:
As the metalloproteinases produced by the cells of mammals are of fundamental importance to allow the cells to migrate from one tissue to another within the organism, Compounds 9, 18, 25 and 31 of the present invention, together with the compounds Z--Pro--Leu--Cyt and FUR--Leu--Cyt (Examples 1 and 8, respectively, of WO 92/06018) were tested on hypereosinophilia induced in rats by Sephadex G-200 resin.

For data set [3], the target named is T1, recombinant human gelatinase B (Homo sapiens, UniProt P14780).
T1 construct: purchased Stangeways Laboratories, Cambridge, UK (so in the source)
T1 sequence (P14780 94-707): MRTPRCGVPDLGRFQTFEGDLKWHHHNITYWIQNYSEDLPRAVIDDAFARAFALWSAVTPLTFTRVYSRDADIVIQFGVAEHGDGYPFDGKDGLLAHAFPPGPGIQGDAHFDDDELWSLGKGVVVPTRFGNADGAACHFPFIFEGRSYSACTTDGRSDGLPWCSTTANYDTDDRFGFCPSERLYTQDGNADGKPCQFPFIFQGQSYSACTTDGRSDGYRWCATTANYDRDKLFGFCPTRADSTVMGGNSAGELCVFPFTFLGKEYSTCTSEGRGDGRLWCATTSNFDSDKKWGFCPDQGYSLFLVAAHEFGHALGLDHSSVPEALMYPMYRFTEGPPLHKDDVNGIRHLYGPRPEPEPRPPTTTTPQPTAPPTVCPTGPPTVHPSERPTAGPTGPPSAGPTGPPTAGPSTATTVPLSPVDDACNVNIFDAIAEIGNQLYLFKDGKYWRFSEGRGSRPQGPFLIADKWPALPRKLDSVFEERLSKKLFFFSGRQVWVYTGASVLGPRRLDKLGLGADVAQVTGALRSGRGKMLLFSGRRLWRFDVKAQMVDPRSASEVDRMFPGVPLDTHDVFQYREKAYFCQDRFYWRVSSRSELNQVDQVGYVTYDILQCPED
Put plainly: In vitro effects on recombinant human gelatinase B. The class given is biochemical. How it is done: Assays on human gelatinase B, another enzyme released by tumor cells, were performed using also, in this case, the protein obtained by recombinant biotechnology Stangeways Laboratories, Cambridge, UK). As usual, the enzymatic activity was followed over time, measuring the amount of fluorescent substrate cleaved by the enzyme, in the presence or absence of synthetic compounds (Perkin Elmer L50 B fluorimeter).

Data set [4] has as its system human melanoma cell line VMM-5. Nature of the data set: Matrigel-based invasion assay with human melanoma cells. The class given is cell-based. The conditions noted are these: Concentration 500 micro M, VMM-5 cells, 20 hours. An excerpt: In order to obtain information about the possible interference of the synthesized compounds on the ability of tumor cells to migrate through the body (metastatization), the human melanoma cell line VMM-5 was used in the matrigel-based invasion assay, in which basal membrane matrigel (Becton Dickinson) and tissue culture inserts with 8 microns pore size in 24 well tissue culture plates were used as Boyden chambers. The chambers were coated with diluted matrigel and allowed to dry overnight; they were then reconstituted with serum free medium, and melanoma cells (4,000,000/ml) were dispensed in each insert. In the lower chambers, a chemoattractant was included. The chambers were finally placed in a humidified CO2 incubator at 37° C., and incubated for 20 hours. The inserts were dried and the cells on the upper surface removed. The polycarbonate filters were fixed with methanol, stained with hematoxylin and eosin, and counted with a microscope. Inhibition of migration due to compounds has been expressed as a percentage of the total number of migrated cells in the control chambers containing only the buffer in which the compounds were dissolved.

Data set [5] has as its target enzyme purified from the venom of Crotalus Adamanteus (hemorrhagin) (Crotalus adamanteus, UniProt P34179). It is filed as biochemical. The following applies: for IC50: read-out: IC50.
Data set [6] addresses neutrophil collagenase (recombinant human) (Homo sapiens, UniProt P22894). Nature of the data set: In vitro assays on recombinant human collagenase. The class given is biochemical. How it is done:
Using the same enzymatic determination already described (fluorimetric detection of cleavage of a substrate peptide containing a fluorescent moiety), some of the compounds were tested on neutrophil collagenase, an enzyme described as participating in any kind of inflammatory reaction in mammalian bodies. In this case, the purified enxzyme was also obtained by recombinant means.

Data set [7] relates to microhemorrhages induced by histamine. Put plainly: Histamine-induced microhemorrhages (capillary permeability) in hamsters. The class given is in vivo.
Data set [8] concerns TNF release from another strain of human cells in culture (clone T). Put plainly: TNF release from human cells in culture (clone T). The class given is cell-based.
In data set [9] the target is T2, recombinant human gelatinase A (Homo sapiens, UniProt P08253).
T2 construct: purchased Strangeways Laboratories, Cambridge, UK
T2 sequence (P08253 110-660): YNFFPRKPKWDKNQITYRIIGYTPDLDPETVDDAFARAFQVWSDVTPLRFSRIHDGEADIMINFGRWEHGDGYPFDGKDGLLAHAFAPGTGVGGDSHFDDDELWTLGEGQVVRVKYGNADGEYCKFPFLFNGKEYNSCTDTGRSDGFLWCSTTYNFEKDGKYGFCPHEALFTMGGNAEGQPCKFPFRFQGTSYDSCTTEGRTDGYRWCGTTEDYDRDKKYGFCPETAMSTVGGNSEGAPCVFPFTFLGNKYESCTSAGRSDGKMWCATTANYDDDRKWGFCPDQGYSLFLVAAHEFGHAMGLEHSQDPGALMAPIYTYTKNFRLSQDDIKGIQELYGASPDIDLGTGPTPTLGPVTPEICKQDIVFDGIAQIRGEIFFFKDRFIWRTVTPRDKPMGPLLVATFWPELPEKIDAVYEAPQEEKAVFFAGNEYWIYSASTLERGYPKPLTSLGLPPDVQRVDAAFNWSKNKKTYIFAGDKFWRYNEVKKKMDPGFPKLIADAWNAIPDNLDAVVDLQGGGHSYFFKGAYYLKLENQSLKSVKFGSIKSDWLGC
Nature of the data set: In vitro effects on recombinant human gelatinase A. It is filed as biochemical. The text has this:
Assays on human gelatinase A, an enzyme released in high concentration by any kind of tumor cells during the process of metastatization, and recognized also as a product of stimulated cells in many pathological processes, have been performed using the protein obtained by recombinant biotechnology (Strangeways Laboratories, Cambridge, UK). The enzymatic activity has been followed over time, measuring the amount of fluorescent substrate cleaved by the enzyme, in the presence or absence of synthetic compounds (Perkin Elmer L50 B fluorimeter).

Data set [10] is described as follows: Resistance to proteolytic activity in stomach juices (rat stomach homogenate, HPLC). The following applies: 37° C.
Method: To check if the compounds of the present invention are resistant to proteolytic activity in stomach juices and, therefore, could be administered orally, the stomachs of fasting rats were homogenized in physiological solutions (1:1). 300 microliters of solutions of the compounds (1 mg/ml of saline) were incubated with 0.5 ml of stomach homogenates (37° C.).
Data set [11] addresses metalloproteinase purified from snake venom, Bothrops Atrox. Nature of the data set: Inhibition of metalloproteinase purified from Bothrops Atrox venom. It is filed as biochemical. The conditions noted are these: Table 5; unit M.
The target in data set [12] is metalloproteinase purified from snake venom, Echis Carinatus. Put plainly: Inhibition of metalloproteinase purified from Echis Carinatus venom. The class given is biochemical. The following applies: Table 5; unit M.
For data set [13], the target named is metalloproteinase purified from snake venom, Bothrops Jararaca. Put plainly: Inhibition of metalloproteinase purified from Bothrops Jararaca venom. It is filed as biochemical. The following applies: Table 5; unit M.
Data set [14] relates to hemorrhages and lethal results induced by snake venom. Put plainly: Inhibition of hemorrhages and lethality induced by snake venom in mice. It is filed as in vivo.

enzyme purified from the venom of Crotalus Adamanteus (hemorrhagin), sequence (P34179 whole entry, looked up): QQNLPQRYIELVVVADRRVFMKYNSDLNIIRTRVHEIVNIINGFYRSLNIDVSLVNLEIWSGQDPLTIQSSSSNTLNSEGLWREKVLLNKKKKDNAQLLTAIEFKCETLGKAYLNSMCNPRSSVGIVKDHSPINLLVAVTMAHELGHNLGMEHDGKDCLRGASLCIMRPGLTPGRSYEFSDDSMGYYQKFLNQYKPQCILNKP
neutrophil collagenase (recombinant human), sequence (P22894 101-467): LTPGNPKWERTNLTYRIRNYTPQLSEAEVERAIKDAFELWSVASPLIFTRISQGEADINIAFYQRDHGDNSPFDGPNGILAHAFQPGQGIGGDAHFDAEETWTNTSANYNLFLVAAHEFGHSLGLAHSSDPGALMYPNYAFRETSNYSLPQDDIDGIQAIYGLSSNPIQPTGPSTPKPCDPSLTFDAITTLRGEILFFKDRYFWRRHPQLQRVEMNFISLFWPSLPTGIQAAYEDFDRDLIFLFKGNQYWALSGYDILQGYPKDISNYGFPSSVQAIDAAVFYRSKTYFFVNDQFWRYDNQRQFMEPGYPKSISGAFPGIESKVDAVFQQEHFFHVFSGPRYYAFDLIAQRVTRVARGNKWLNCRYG

For the compound `CC(C)C[C@H](NC(=O)c1ccccn1)C(=O)N1Cc2[nH]c3ccccc3c2C[C@H]1C(=O)O` [Compound 9, PIC--(L)--Leu--(S)--Cyt--OH], the “IC50 of inhibition of TNF release by cells” value (from here on “IC50 of inhibition … by cells”) in data set [1] is reported as “around 8 mcg/ml”. Besides, the “Effect on number of blood cells that migrate to the inflamed site” value (from here on “Effect on number”) in data set [2] is “interfered with the number of blood cells that migrate to the inflamed site”. Moreover, the “% Inhibition” value in data set [3] (Concentration 1.1 × 10^-5 M) is recorded as 20%. Besides, the “% Inhibition of Invasion” value in data set [4] is listed as 94%. In addition, the IC50 in [5] is 0.027 µM.
As to MePro--Leu--Cyt, the “% Inhibition” value in data set [3] (Concentration 1.1 × 10^-5 M) came to 37%. In [4], the “% Inhibition of Invasion” value is reported as 40%.
In the case of `COc1ccc(C(=O)N[C@@H](CC(C)C)C(=O)N2Cc3[nH]c4ccccc4c3C[C@H]2C(=O)O)c(OC)c1` [Compound 24, 2,4-Dimethoxybenzoyl--(L)--Leu--(S)--Cyt--OH], the “% Inhibition” value in data set [6] (Concentration 2.0 × 10^-5 M) came to 19%; in data set [3] (Concentration 1.0 × 10^-5 M), 48%. Also, the “% Inhibition of Invasion” value in data set [4] is 100%. The IC50 in data set [5] stood at 0.098 µM.
Turning to “4-MBZ--(L)--Trp--(S)--Cyt--OH [Compound 25]”, the “IC50 of inhibition … by cells” value in data set [1] is “around 0.7 mcg/ml”. The “Effect on number” value in data set [2] is recorded as “interfered with the number of blood cells that migrate to the inflamed site”. For the same compound, in data set [6] (Concentration 5.2 × 10^-5 M), the “% Inhibition” value turned out to be 23%. For the same compound, in [5], the IC50 is 0.054 µM.
Regarding Z--Pro--Leu--Cyt, the “Dose capable of blocking 50% of effects” value in data set [7] (administered orally) and in data set [7] (injected intravenously) was “around 50 mcg/Kg” in each case. Also, the “Blocking microhemorrhages induced by histamine” value in [7] (result in words) is “extremely powerful in blocking microhemorrhages induced by histamine”. The “IC50 of inhibition … by cells” value in data set [1] was “around 5 mcg/ml”. Further, the “Effect on number” value in data set [2] was “interfered with the number of blood cells that migrate to the inflamed site”. Further, the “IC50 of inhibition of TNF release” value in data set [8] was “lower than 1 mcg/ml”. Besides, the “% Inhibition” value in [6] (Concentration 1.8 × 10^-5 M) was 23%; in [9] (Concentration 1.8 × 10^-7 M), 64%; in [3] (Concentration 9.0 × 10^-6 M), 32%. In addition, the “% Inhibition of Invasion” value in data set [4] was found to be 70%.
`O=C(N[C@@H](CC1CCCCC1)C(=O)N1Cc2[nH]c3ccccc3c2C[C@H]1C(=O)O)c1ccco1` [Compound 10, 2-FUR--(L)--Cha--(S)--Cyt--OH]: the “IC50 of inhibition … by cells” value in data set [1] is listed as “around 200 mcg/ml”. In addition, the “% Inhibition” value in [6] (Concentration 2.1 × 10^-5 M) amounted to 51%. Besides, the “% Inhibition” value in data set [3] (Concentration 1.1 × 10^-5 M) is listed as 32%. Also, in data set [10], the “Residue after 60 Minutes” value is given as 100% and the “Residue after 120 Minutes” value is reported as over 95%. The “% Inhibition of Invasion” value in [4] is 99%. Also, the half-maximal inhibitory concentration (IC50) in data set [5] amounted to 0.025 µM.
As for FUR--Leu--Cyt, in data set [2], the “Effect on number” value is recorded as “interfered with the number of blood cells that migrate to the inflamed site”. Also, the “% Inhibition of Invasion” value in data set [4] was determined as 69%.
Regarding `CC(C)C[C@H](NC(=O)c1cnccn1)C(=O)N1Cc2[nH]c3ccccc3c2C[C@H]1C(=O)O` [Compound 18, 2-PZC--(L)--Leu--(S)--Cyt--OH], the IC50 in data set [11] came out at 5.2 µM; in data set [12] it was 7 µM; in [13] it was 8.4 µM; in data set [5], 0.21 µM. The “Effect on number” value in data set [2] was “interfered with the number of blood cells that migrate to the inflamed site”.
In the case of `Cc1ccc(C(=O)N[C@@H](CC(C)C)C(=O)N2Cc3[nH]c4ccccc4c3C[C@H]2C(=O)O)cn1` [Compound 22, 6-MNC--(L)--Leu--(S)--Cyt--OH], the IC50 in data set [11] was found to be 3.2 µM; in data set [12], 14 µM; in data set [13], 21 µM; in data set [5] it was 0.11 µM. Also, the “% Inhibition” value in data set [9] (Concentration 8.0 × 10^-7 M) is 47%.
As to `CC(C)C[C@H](NC(=O)c1ccco1)C(=O)N[C@@H](Cc1c[nH]c2ccccc12)C(=O)O` [2-FUR--Leu--Trp], the “% Inhibition” value in [6] (Concentration 2.4 × 10^-5 M) came out at 12%; in data set [9] (Concentration 1.0 × 10^-7 M), 41%; in [3] (Concentration 1.0 × 10^-5 M), 22%. Besides, the “Protection of mice from death by injection of the venom” value in data set [14] (dose of 33 mcg/mouse, even when administered after the venom (up to 30 minutes)) is on record as “capable of protecting the mice from death”. Moreover, the “Neutralizing the toxic effects of hemorrhagic factors of various snake venom” value in data set [14] (mice, compound incubated with the hemorrhagic factors) is reported as “capable of neutralizing the toxic effects thereof”. For the same compound, the “In vitro inhibition of the metalloproteinase purified from the venom of Crotalus Adamanteus” value in data set [5] is recorded as “excellent in vitro inhibitor”.
For the compound `CC(C)C[C@H](NC(=O)c1cc2ccccc2o1)C(=O)N1Cc2[nH]c3ccccc3c2C[C@H]1C(=O)O` [Compound 15, 2-BZF--(L)--Leu--(S)--Cyt--OH], the IC50 in [11] is 8.2 µM; in data set [12], 2 µM; in data set [13] it was 14 µM; in [5], 0.04 µM.
Turning to `CC(C)C[C@H](NC(=O)CSc1ccncc1)C(=O)N1Cc2[nH]c3ccccc3c2C[C@H]1C(=O)O` [Compound 3, 4-PTA--(L)--Leu--(S)--Cyt--OH], in data set [10], the “Residue after 60 Minutes” value worked out at 100% and the “Residue after 120 Minutes” value is recorded as over 95%. Moreover, in data set [4], the “% Inhibition of Invasion” value worked out at 69%. Also, the half-maximal inhibitory concentration (IC50) in data set [5] was determined as 0.36 µM.
